Among the data in US20240217990A1 (Gilead Sciences, Inc., priority 2021, published 2024) are EC50 values, retold here.

Experiment [1] deals with T1, TLR7 (Homo sapiens, UniProt Q9NYK1).
T1 construct: Human peripheral blood mononuclear cells (PBMCs) consist of lymphocytes, monocytes and dendritic cells that express TLR7, TLR8 and TLR9; endogenous in cells; host or cells: cryopreserved human PBMCs from healthy donors
T1 sequence (Q9NYK1 27-1049): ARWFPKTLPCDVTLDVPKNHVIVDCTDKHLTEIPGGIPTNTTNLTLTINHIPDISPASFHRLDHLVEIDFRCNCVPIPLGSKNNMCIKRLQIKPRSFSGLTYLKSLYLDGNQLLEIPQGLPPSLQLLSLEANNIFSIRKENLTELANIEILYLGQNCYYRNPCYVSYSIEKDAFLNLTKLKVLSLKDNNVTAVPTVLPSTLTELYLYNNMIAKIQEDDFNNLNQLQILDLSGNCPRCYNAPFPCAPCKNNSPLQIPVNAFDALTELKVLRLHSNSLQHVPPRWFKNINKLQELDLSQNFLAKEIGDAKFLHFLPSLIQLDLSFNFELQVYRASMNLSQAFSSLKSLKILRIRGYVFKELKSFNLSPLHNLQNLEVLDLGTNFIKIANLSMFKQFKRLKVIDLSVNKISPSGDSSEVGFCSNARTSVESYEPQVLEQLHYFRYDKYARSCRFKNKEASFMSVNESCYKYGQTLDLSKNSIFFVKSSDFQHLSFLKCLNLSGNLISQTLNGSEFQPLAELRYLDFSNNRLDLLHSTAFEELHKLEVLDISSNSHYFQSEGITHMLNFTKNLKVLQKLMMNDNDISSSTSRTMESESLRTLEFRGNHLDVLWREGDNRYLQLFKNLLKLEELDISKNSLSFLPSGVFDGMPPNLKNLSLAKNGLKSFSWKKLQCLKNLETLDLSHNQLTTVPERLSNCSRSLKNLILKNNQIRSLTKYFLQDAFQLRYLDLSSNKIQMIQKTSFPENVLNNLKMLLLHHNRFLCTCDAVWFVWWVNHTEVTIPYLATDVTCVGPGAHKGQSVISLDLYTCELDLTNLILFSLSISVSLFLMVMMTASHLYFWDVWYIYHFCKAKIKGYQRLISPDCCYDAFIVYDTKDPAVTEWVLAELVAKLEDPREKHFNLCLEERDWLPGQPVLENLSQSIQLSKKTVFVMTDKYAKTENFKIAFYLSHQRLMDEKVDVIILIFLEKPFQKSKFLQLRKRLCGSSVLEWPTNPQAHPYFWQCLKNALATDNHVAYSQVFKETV
Nature of the experiment: TLR7 human PBMC cell-based assay (antagonist, GS-986 stimulated cytokine release). The following applies: human PBMCs; TLR7 agonist GS-986 400 nM, 6 hours; cytokines (IL-6 and IFNα) in supernatant; read-out: TLR-7 EC50. The procedure, abridged:
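EC50 derived by sigmoidal fitting of IL-6 and IFNα levels, quantified by electrochemiluminescence in supernatants of human PBMCs given 400 nM GS-986 for 6 h. Cells (100,000/well in RPMI-1640, 10% FBS) had received test antagonist 1 h beforehand, 10 doses in quadruplicate, at 37 °C.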

Experiment [2] has as its target T2, TLR8 (Homo sapiens, UniProt Q9NR97).
T2 construct: Human peripheral blood mononuclear cells (PBMCs) consist of lymphocytes, monocytes and dendritic cells that express TLR7, TLR8 and TLR9; endogenous in cells; host or cells: cryopreserved human PBMCs from healthy donors
T2 sequence (Q9NR97 27-1041): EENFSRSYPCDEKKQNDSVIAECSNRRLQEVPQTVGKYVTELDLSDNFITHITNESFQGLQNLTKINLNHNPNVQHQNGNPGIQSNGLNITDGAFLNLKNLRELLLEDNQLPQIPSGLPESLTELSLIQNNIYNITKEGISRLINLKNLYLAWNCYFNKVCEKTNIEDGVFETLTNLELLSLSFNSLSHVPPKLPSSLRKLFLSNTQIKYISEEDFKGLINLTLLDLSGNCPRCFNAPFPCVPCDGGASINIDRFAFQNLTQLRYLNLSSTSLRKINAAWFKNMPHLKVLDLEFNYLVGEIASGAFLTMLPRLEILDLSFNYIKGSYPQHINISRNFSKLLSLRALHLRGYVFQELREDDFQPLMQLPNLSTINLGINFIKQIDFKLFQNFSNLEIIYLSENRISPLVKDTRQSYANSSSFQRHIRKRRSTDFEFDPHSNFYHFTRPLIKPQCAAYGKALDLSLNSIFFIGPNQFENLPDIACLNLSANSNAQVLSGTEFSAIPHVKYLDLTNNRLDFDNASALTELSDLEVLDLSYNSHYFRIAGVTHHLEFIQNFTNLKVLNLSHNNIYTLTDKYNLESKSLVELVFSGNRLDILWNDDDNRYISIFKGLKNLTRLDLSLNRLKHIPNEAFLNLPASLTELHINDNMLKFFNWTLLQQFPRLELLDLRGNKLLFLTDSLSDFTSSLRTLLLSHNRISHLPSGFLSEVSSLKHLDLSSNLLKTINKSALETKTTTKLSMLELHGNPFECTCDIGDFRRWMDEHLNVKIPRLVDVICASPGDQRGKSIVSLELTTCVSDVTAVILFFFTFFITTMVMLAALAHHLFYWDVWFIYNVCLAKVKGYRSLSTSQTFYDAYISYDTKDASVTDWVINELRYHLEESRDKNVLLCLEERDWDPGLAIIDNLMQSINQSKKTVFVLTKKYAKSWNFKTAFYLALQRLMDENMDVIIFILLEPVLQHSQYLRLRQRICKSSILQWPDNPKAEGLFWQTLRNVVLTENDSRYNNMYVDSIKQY
Nature of the experiment: TLR8 human PBMC cell-based assay (antagonist, Compound A stimulated cytokine release). Conditions: human PBMCs; TLR8 agonist Compound A 800 nM, 6 hours; cytokines (TNFa and IL 12p40) in supernatant; read-out: TLR-8 EC50. An outline of the steps:
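Cryopreserved donor PBMCs (100,000/well, RPMI + 10% FBS) were preincubated 1 h with antagonist (10-point dose response, quadruplicate), then stimulated with Compound A (800 nM final) for 6 h at 37 °C. TNFa and IL-12p40 in supernatants were measured by electrochemiluminescence; sigmoidal fits gave EC50.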

On to `Cc1c(-c2[nH]c3cc(CN4CCC(O)(C(F)(F)F)CC4)sc3c2C(C)C)cn2ncnc2c1C` [Example 267], for which the EC50 in experiment [1] was determined as 37.5 nM; in experiment [2] it was 4.8 nM.

In the case of `COc1cc(-c2[nH]c3cc(-c4cnn(C5CCNCC5)c4)sc3c2C(C)C)cn2ncnc12` [Example 233], the concentration for a half-maximal effect (EC50) in experiment [1] turned out to be 0.4 nM; in experiment [2], 1.4 nM.

For `Cc1c(-c2[nH]c3cc(-c4nc5ccc(N6CCNCC6)cc5[nH]4)sc3c2C(C)C)cn2ncnc2c1C` [Example 239], the figures for the EC50 in experiment [1] and in experiment [2] were 6.6 nM and 25.4 nM, respectively.

With `Cc1cc(-c2[nH]c3cc(C(=O)N4C5CNCC4COC5)sc3c2C(C)C)cc(C)n1` [Example 15], the results for the EC50 in experiment [1] and in experiment [2] were 60 nM and 72.9 nM, respectively.

As for `Cc1cc(-c2[nH]c3cc(-c4cnn(C5CCN(CC(N)=O)CC5)c4)sc3c2C(C)C)cn2ncnc12` [Example 172], the EC50 in experiment [1] was found to be 13.5 nM; in experiment [2] it was 6 nM.

For `Cc1cc(-c2[nH]c3cc(C(=O)N4CCC5(CCN(CC(N)=O)C5)CC4)sc3c2C(C)C)cn2ncnc12` [Example 175], the results for the EC50 in experiment [1] and in experiment [2] were 0.8 nM and 4.1 nM, respectively.

Turning to `Cc1c(-c2[nH]c3cc(-c4cn(C5CCNCC5)nn4)sc3c2C(C)C)cn2ncnc2c1C` [Example 230], the EC50 in experiment [1] amounted to 1.6 nM; in experiment [2], 1.9 nM.

Turning to `Cc1cc(-c2[nH]c3cc(-c4cn(C5CCNCC5)nn4)sc3c2C(C)C)cn2ncnc12` [Example 263, 6-isopropyl-5-(8-methyl-[1,2,4]triazolo[1,5-a]pyridin-6-yl)-2-(1-(piperidin-4-yl)-1H-1,2,3-triazol-4-yl)-4H-thieno[3,2-b]pyrrole], the EC50 in experiment [1] is 0.3 nM; in experiment [2] it was 6 nM.

Turning to `Cc1cc(-c2[nH]c3cc(-c4cnn(C5CCNCC5)c4)sc3c2C(C)C)cn2ncnc12` [Example 215], the values for the 50% effective concentration (EC50) in experiment [1] and in experiment [2] were 0.3 nM and 2.3 nM, respectively.

Consider `Cc1cc(-c2[nH]c3cc(C4CCN(C5CCC5)CC4)sc3c2C(C)C)cn2ncnc12` [Example 195], for which the figures for the EC50 in experiment [1] and in experiment [2] were 2.5 nM and 0.3 nM, respectively.

Consider `Cc1cc(-c2[nH]c3cc(C(=O)N4CCNC(C#N)C4)sc3c2C(C)C)cc(C)n1` (stereo not drawn) [Example 9], for which the results for the EC50 in experiment [1] and in experiment [2] were 636 nM and 374 nM, respectively.

For the molecule `Cc1nc2c(C)cc(-c3[nH]c4cc(C5CCN(CC(N)=O)CC5)sc4c3C(C)C)cn2n1` [Example 283], the EC50 in experiment [1] was determined as 1.37 nM; in experiment [2], 3.47 nM.

`Cc1c(-c2[nH]c3cc(-c4cnn(C5CCNCC5)c4)sc3c2C(C)C)cn2ncnc2c1C` [Example 229]: the values for the EC50 in experiment [1] and in experiment [2] were 1.1 nM and 1.3 nM, respectively.

Regarding `Cc1cc(-c2[nH]c3cc(C(=O)N4C[C@@H](N)C[C@@H](C(F)(F)F)C4)sc3c2C(C)C)cn2ncnc12` [Example 77], the 50% effective concentration (EC50) turned out to be 9 nM in experiment [1] and 40.3 nM in experiment [2].

Regarding `Cc1cc(-c2[nH]c3cc(C(=O)N(C)C4CNC4)sc3c2C(C)C)cn2ncnc12` [Example 115], the concentration for a half-maximal effect (EC50) in experiment [1] turned out to be 3 nM; in experiment [2], 38 nM.

Regarding `Cc1cc(-c2[nH]c3cc(C(=O)N(C)Cc4cccnc4)sc3c2C(C)C)cn2ncnc12` [Example 137], the EC50 stood at 44.3 nM in experiment [1] and 137 nM in experiment [2].

With `Cc1cc(-c2[nH]c3cc(C4CCNC4)sc3c2C(C)C)cn2ncnc12` (stereo not drawn) [Example 161], the EC50 in experiment [1] is 9.6 nM; in experiment [2], 12.4 nM.

With `Cc1cc(-c2[nH]c3cc(C(=O)N4CCCCC4CN(C)C)sc3c2C(C)C)cn2ncnc12` (stereo not drawn) [Example 107], the EC50 is 3.9 nM in experiment [1] and 12.8 nM in experiment [2].

Consider `CC(C)c1c(-c2cc(C(F)(F)F)c3ncnn3c2)[nH]c2cc(C(=O)N3CCNCC3)sc12` [Example 305], for which the EC50 in experiment [1] amounted to 2.36 nM; in experiment [2], 5.14 nM.

In the case of `Cc1cc(-c2[nH]c3cc(C(=O)N4CCNC[C@H]4C)sc3c2C(C)C)cn2ncnc12` [Example 148], the half-maximal effective concentration (EC50) was found to be 4.8 nM in experiment [1] and 11 nM in experiment [2].

For `Cc1cc(-c2[nH]c3cc(C(=O)N4CCC[C@H]4CN(C)C)sc3c2C(C)C)cn2ncnc12` [Example 103], the figures for the EC50 in experiment [1] and in experiment [2] were 11.3 nM and 21.3 nM, respectively.

In the case of `Cc1cc(-c2[nH]c3cc(C(=O)N4CCC5CCNC5C4)sc3c2C(C)C)cn2ncnc12` (stereo not drawn) [Example 90], the results for the EC50 in experiment [1] and in experiment [2] were 1 nM and 9.9 nM, respectively.

`Cc1cc(-c2[nH]c3cc(C(=O)N4CCCC(CN)C4)sc3c2C(C)C)cn2ncnc12` (stereo not drawn) [Example 111]: the concentration for a half-maximal effect (EC50) in experiment [1] worked out at 1.5 nM; in experiment [2] it was 7.2 nM.

As to `Cc1cc(-c2[nH]c3cc(-c4cnn5c4CNCC5)sc3c2C(C)C)cn2ncnc12` [Example 219], the EC50 was determined as 34.9 nM in experiment [1] and 4.6 nM in experiment [2].

With `Cc1cc(-c2[nH]c3cc(C(=O)N4CC[C@@H](F)[C@@H](N)C4)sc3c2C(C)C)cc(C)n1` [Example 27], the EC50 in experiment [1] was found to be 72 nM; in experiment [2], 123 nM.

Regarding `Cc1cc(CN2CCC(c3cc4[nH]c(-c5cc(C)c6ncnn6c5)c(C(C)C)c4s3)CC2)no1` [Example 193], the EC50 came to 18.2 nM in experiment [1] and 12.3 nM in experiment [2].

In the case of `Cc1cc(-c2[nH]c3cc(C(=O)N4CCNC(C)(C)C4)sc3c2C(C)C)cn2ncnc12` [Example 85], the EC50 is 1.3 nM in experiment [1] and 0.6 nM in experiment [2].

As to `Cc1cc(-c2[nH]c3cc(C(=O)N4CCN(CCO)CC4)sc3c2C(C)C)cc(C)n1` [Example 45], the figures for the EC50 in experiment [1] and in experiment [2] were 355 nM and 31.7 nM, respectively.

On to `Cc1cc(-c2[nH]c3cc(C(=O)N(C)[C@@H]4CCNC4)sc3c2C(C)C)cc(C)n1` [Example 22], for which the EC50 in experiment [1] stood at 50.1 nM; in experiment [2] it was 94 nM.

As to `Cc1cc(-c2[nH]c3cc(-c4ccc(C5CCNCC5)cc4)sc3c2C(C)C)cn2ncnc12` [Example 221], the EC50 is 0.8 nM in experiment [1] and 3.3 nM in experiment [2].

As to `Cc1cc(-c2[nH]c3cc(C4CC5(CCNCC5)C4)sc3c2C(C)C)cn2ncnc12` [Example 308], the EC50 in experiment [1] stood at 0.28 nM; in experiment [2], 3.46 nM.

In the case of `Cc1cc(-c2[nH]c3cc(C(=O)N4CCCNCC4)sc3c2C(C)C)cc(C)n1` [Example 13], the half-maximal effective concentration (EC50) worked out at 45.7 nM in experiment [1] and 27.2 nM in experiment [2].

In the case of `Cc1cc(-c2[nH]c3cc(C4CC5CCCC(C4)N5CC(N)=O)sc3c2C(C)C)cn2ncnc12` (stereo not drawn) [Example 302], the EC50 in experiment [1] was 11.9 nM; in experiment [2] it was 54 nM.
